Experimental data reported in patent US20050239853A1, “New compounds” (priority 2004, published 2005).
Structures can show the parent of a compound that is named as a salt.

Molecular target: T1, human 11-β-hydroxysteroid dehydrogenase type-1 enzyme (11-β-HSD1) (Homo sapiens, UniProt P28845)
T1 construct: made in house; host or cells: Pichia pastoris
Test: Scintillation Proximity Assay (11-β-HSD1 enzyme assay)
Format: biochemical
Settings: calculated from IC50 (Cheng Prushoff); tritiated Cortisone/NADPH 175 nM/181 μM; enzyme expressed in Pichia pastoris
Source text: Scintillation Proximity Assay
[1,2(n)-^3H]-cortisone was purchased from Amersham Pharmacia Biotech. Anti-cortisol monoclonal mouse antibody, clone 6D6.7 was obtained from Immunotech and Scintillation proximity assay (SPA) beads coated with monoclonal antimouse antibodies were from Amersham Pharmacia Biotech. NADPH, tetrasodium salt was from Calbiochem and glucose-6-phosphate (G-6-P) was supplied by Sigma. The human 11-β-hydroxysteroid dehydrogenase type-1 enzyme (11-β-HSD1) was expressed in Pichia pastoris. 18-β-glycyrrhetinic acid (GA) was obtained from Sigma. The serial dilutions of the compounds were performed on a Tecan Genesis RSP 150. Compounds to be tested were dissolved in DMSO (1 mM) and diluted in 50 mM Tris-HCl, pH 7.2 containing 1 mM EDTA.
The multiplication of plates was done on a WallacQuadra. The amount of the product [^3H]-cortisol, bound to the beads was determined in a Packard, Top Count microplate liquid scintillation counter.
The 11-β-HSD1 enzyme assay was carried out in 96 well microtiter plates (Packard, Optiplate) in a total well volume of 220 μL and contained 30 mM Tris-HCl, pH 7.2 with 1 mM EDTA, a substrate mixture tritiated Cortisone/NADPH (175 nM/181 μM), G-6-P (1 mM) and inhibitors in serial dilutions (9 to 0.15 μM). Reactions were initiated by the addition of human 11-β-HSD1, either as Pichia pastoris cell homogenate or microsomes prepared from Pichia pastoris (the final amount of enzyme used was varied between 0.057 to 0.11 mg/mL). Following mixing, the plates were shaken for 30 to 45 minutes at room temperature. The reactions were terminated with 10 μL 1 mM GA stop solution. Monoclonal mouse antibody was then added (10 μL of 4 μM) followed by 100 μL of SPA beads (suspended according to the manufacturers instructions). Appropriate controls were set up by omitting the 11-β-HSD1 to obtain the non-specific binding (NSB) value.
The plates were covered with plastic film and incubated on a shaker for 30 minutes, at room temperature, before counting. The amount of [^3H]-cortisol, bound to the beads was determined in a microplate liquid scintillation counter. The calculation of the Ki values for the inhibitors was performed by use of Activity Base. The Ki value is calculated from IC50 and the Km value is calculated using the Cheng Prushoff equation (with reversible inhibition that follows the Michaelis-Menten equation): Ki=IC50(1+[S]/Km) [Cheng, Y. C.; Prushoff, W. H. Biochem. Pharmacol. 1973, 22, 3099-3108]. The IC50 is measured experimentally in an assay wherein the decrease of the turnover of cortisone to cortisol is dependent on the inhibition potential of each substance. The Ki values of the compounds of the present invention for the 11-β-HSD1 enzyme lie typically between about 10 nM and about 10 μM.

T1 sequence (P28845 whole entry): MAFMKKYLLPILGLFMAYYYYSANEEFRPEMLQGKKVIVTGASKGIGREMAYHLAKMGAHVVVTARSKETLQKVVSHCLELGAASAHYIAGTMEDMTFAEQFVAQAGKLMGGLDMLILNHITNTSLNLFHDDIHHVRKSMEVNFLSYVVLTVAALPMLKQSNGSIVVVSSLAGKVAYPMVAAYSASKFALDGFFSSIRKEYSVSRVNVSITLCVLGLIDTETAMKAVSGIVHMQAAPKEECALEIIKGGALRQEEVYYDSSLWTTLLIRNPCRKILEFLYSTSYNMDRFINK

Ki | Compound
384 nM | CCC(C)CNC1=NC(=O)C(CC(=O)N2CCCc3ccccc32)S1 (stereo not drawn) [Example 125, 5-[2-(3,4-dihydroquinolin-1(2H)-yl)-2-oxoethyl]-2-[(2-methylbutyl)amino]-1,3-thiazol-4(5H)-one]
709 nM | Cc1c(Cl)cccc1NC1=NC(=O)C(CC(=O)N(C)c2ccccc2)S1 (stereo not drawn) [Example 109, 2-{2-[(3-chloro-2-methylphenyl)amino]-4-oxo-4,5-dihydro-1,3-thiazol-5-yl}-N-methyl-N-phenylacetamide]
559 nM | O=C(NCCC1SC(NC2CCCCCC2)=NC1=O)Nc1ccccc1Cl (stereo not drawn) [Example 261, N-(2-chlorophenyl)-N′-{2-[2-(cycloheptylamino)-4-oxo-4,5-dihydro-1,3-thiazol-5-yl]ethyl}urea]
535 nM | O=C1N=C(NC2(c3ccc(Cl)cc3)CCC2)SC1CCNc1ccccc1 (stereo not drawn) [Example 335, 5-(2-anilinoethyl)-2-{[1-(4-chlorophenyl)cyclobutyl]amino}-1,3-thiazol-4(5H)-one hydrobromide]

System: not given
Test: not given
Settings: not given

melting point | Compound
244 to 245 °C | O=C(CC1SC(NC2CC3C=CC2C3)=NC1=O)c1ccc(Cl)cc1 (stereo not drawn) [Example 283, 2-(Bicyclo[2.2.1]hept-5-en-2-ylamino)-5-[2-(4-chlorophenyl)-2-oxoethyl]-1,3-thiazol-4(5H)-one]
222 to 223 °C | O=C(CC1SC(NC2CC3C=CC2C3)=NC1=O)Nc1ccc2cn[nH]c2c1 (stereo not drawn) [Example 100, 2-[2-(Bicyclo[2.2.1]hept-5-en-2-ylamino)-4-oxo-4,5-dihydro-1,3-thiazol-5-yl]-N-1H-indazol-6-ylacetamide]
183 °C | O=C(CC1SC(NC2CCCCC2)=NC1=O)Nc1ccccc1Cl (stereo not drawn) [Example 97, N-(2-Chlorophenyl)-2-[2-(cyclohexylamino)-4-oxo-4,5-dihydro-1,3-thiazol-5-yl]acetamide]
216 to 217 °C | O=C(CC1SC(NC2CC3C=CC2C3)=NC1=O)Nc1ccccc1 (stereo not drawn) [Example 99, 2-[2-(Bicyclo[2.2.1]hept-5-en-2-ylamino)-4-oxo-4,5-dihydro-1,3-thiazol-5-yl]-N-phenylacetamide]
211 °C | O=C(CC1SC(NC2CC3C=CC2C3)=NC1=O)Oc1ccccc1Cl (stereo not drawn) [Example 279, 2-Chlorophenyl [2-(bicyclo[2.2.1]hept-5-en-2-ylamino)-4-oxo-4,5-dihydro-1,3-thiazol-5-yl]acetate]
177 °C | O=C(CC1SC(N2CCCCC2)=NC1=O)Nc1ccccc1Cl (stereo not drawn) [Example 98, N-(2-Chlorophenyl)-2-(4-oxo-2-piperidin-1-yl-4,5-dihydro-1,3-thiazol-5-yl)acetamide]
201 to 202 °C | Cc1c(Cl)cccc1NC(=O)CC1SC(NC2CC3C=CC2C3)=NC1=O (stereo not drawn) [Example 73, 2-[2-(Bicyclo[2.2.1]hept-5-en-2-ylamino)-4-oxo-4,5-dihydro-1,3-thiazol-5-yl]-N-(3-chloro-2-methylphenyl)acetamide]
232 °C | O=C(O)CC1SC(NC2CC3C=CC2C3)=NC1=O (stereo not drawn) [Example 288, [2-(Bicyclo[2.2.1]hept-5-en-2-ylamino)-4-oxo4,5-dihydro-1,3-thiazol-5-yl]acetic acid]
206 to 207 °C | O=C(CC1SC(NC2CC3C=CC2C3)=NC1=O)NCc1ccccc1 (stereo not drawn) [Example 74, N-Benzyl-2-[2-(bicyclo[2.2.1]hept-5-en-2-ylamino)-4-oxo-4,5-dihydro-1,3-thiazol-5-yl]acetamide]
205 °C | CNC(=O)CC1SC(NC2CC3C=CC2C3)=NC1=O (stereo not drawn) [Example 105, 2-[2-(Bicyclo[2.2.1]hept-5-en-2-ylamino)-4-oxo-4,5-dihydro-1,3-thiazol-5-yl]-N-methylacetamide]
149 to 150 °C | CN(C(=O)CC1SC(NC2CC3C=CC2C3)=NC1=O)c1ccccc1Cl (stereo not drawn) [Example 107, 2-[2-(Bicyclo[2.2.1]hept-5-en-2-ylamino)-4-oxo-4,5-dihydro-1,3-thiazol-5-yl]-N-(2-chlorophenyl)-N-methylacetamide]
242 °C | O=C(CC1SC(NC2CC3C=CC2C3)=NC1=O)Nc1cccc(C(=O)O)c1 (stereo not drawn) [Example 103, 3-({[2-(Bicyclo[2.2.1]hept-5-en-2-ylamino)-4-oxo-4,5-dihydro-1,3-thiazol-5-yl]acetyl}amino)benzoic acid]
187 to 188 °C | CCNC(=O)CC1SC(NC2CC3C=CC2C3)=NC1=O (stereo not drawn) [Example 104, 2-[2-(Bicyclo[2.2.1]hept-5-en-2-ylamino)-4-oxo-4,5-dihydro-1,3-thiazol-5-yl]-N-ethylacetamide]
175 to 176 °C | COc1ccccc1OC(=O)CC1SC(NC2CC3C=CC2C3)=NC1=O (stereo not drawn) [Example 281, 2-Methoxyphenyl [2-(bicyclo[2.2.1]hept-5-en-2-ylamino)-4-oxo-4,5-dihydro-1,3-thiazol-5-yl]acetate]
203 to 204 °C | O=C(CC1SC(NC2CC3C=CC2C3)=NC1=O)Oc1cccc(N2CCOCC2)c1 (stereo not drawn) [Example 282, 3-Morpholin-4-ylphenyl [2-(bicyclo[2.2.1]hept-5-en-2-ylamino)-4-oxo-4,5-dihydro-1,3-thiazol-5-yl]acetate]
191 to 192 °C | O=C(CC1SC(NC2CC3C=CC2C3)=NC1=O)Nc1ccccc1C(=O)c1ccccc1 (stereo not drawn) [Example 102, N-(2-benzoylphenyl)-2-[2-(Bicyclo[2.2.1]hept-5-en-2-ylamino)-4-oxo-4,5-dihydro-1,3-thiazol-5-yl]acetamide]
215 °C | O=C(CC1SC(NC2CC3C=CC2C3)=NC1=O)Nc1ccc(F)cc1 (stereo not drawn) [Example 101, 2-[2-(Bicyclo[2.2.1]hept-5-en-2-ylamino)-4-oxo-4,5-dihydro-1,3-thiazol-5-yl]-N-(4-fluorophenyl)acetamide]
